Data as given in patent publication US11440923B2, “Substituted macrocyclic indole derivatives” (Bayer Aktiengesellschaft, priority 2017, dated 2022).
Structures can show the parent of a compound that is named as a salt. Where two headings read alike, the source gives them in different places.

What was measured:
Format in all cases: cell-based
AMO-1 cells = test: Antiproliferation assay AMO-1 (Assay 7)
Method: (§1) Assessment of the Anti-Proliferative Effect of Compounds in Different Cell Lines
(§2) The impact of compounds on the proliferation of different cell lines was assessed using the CellTiter-Glo® Luminescent Cell Viability reagent from Promega (G7573).
(§3) In parallel, cells were plated in a reference (day 0) plate for time zero determination. Cells were incubated in a humidified incubator at 37° C. overnight.
(§4) Rim wells were excluded. The cells were incubated for 72 h hours in a humidified incubator at 37° C. The day 0 plate was measured by adding 30 μL/well of CTG solution (CellTiter-Glo® Luminescent Cell Viability reagent, Promega G7573) to time zero wells in the reference plate followed by a 10 minutes incubation and luminescence reading at 0.1 ms. using the PHERAstar FS microplate reader (BMG Labtech).
(§5) After 72 h incubation, the treated plates were measured in the same way as the day 0 plate mentioned above. The Bella DRC Master Sheet was used to calculate IC50s, with CI=day 0 values and C0=DMSO control values.

SUDHL5 cells [1] = test: Induction of caspase-3/7 activity in SUDHL5 cells (Assay 4)
Method: (§6) Induction of Caspase-3/7 Activity Upon Treatment of Cells with Selected Compounds
(§7) The BH3-domain of MCL-1 sequesters pro-apoptotic proteins, thereby inhibiting apoptosis. In contrast, MCL-1 inhibitors are expected to antagonize this effect leading to an increase in apoptosis, which can be determined by measuring the activity of caspase-3/7.
(§8) The activity of caspase-3/7 was determined in DLBCL (Diffuse large B-cell lymphoma) cell lines (SUDHL5 and SUDHL10) upon treatment with different compounds, using the Caspase-Glo® 3/7 reagent from Promega (G8092).
(§9) As a control, medium without cells was also added to the plate. Cells were incubated in a humidified incubator at 37° C. overnight.
(§10) Rim wells were excluded. The cells were incubated for 3 h hours in a humidified incubator at 37° C. After this incubation, 30 μL of Caspase-Glo® 3/7 reagent (Promega G8092) was added to each well using the Multidrop Combi Reagent Dispenser, followed by 1 h incubation at 37° C. Finally, luminescence was read at 0.1 ms, with a gain of 3000 using the PHERAstar FS microplate reader (BMG Labtech).
(§11) For the evaluation of the results, the background measured with “medium-only” was subtracted from all other values. Then, the values were normalized to DMSO-only treated cells (every value was divided by the mean of the DMSO control).

SUDHL5 cells [2] = test: Antiproliferation assay SUDHL5 (Assay 7); settings: 72 h, CellTiter-Glo, read-out: Antiproli SUDHL5 IC50 (median)
Method: as §1, §2, §3, §4, §5

SUDHL10 cells = test: Induction of caspase-3/7 activity in SUDHL10 cells (Assay 4)
Method: as §6, §7, §8, §9, §10, §11

HMC-1-8 cells = test: Antiproliferation assay HMC-1-8 (Assay 7)
Method: as §1, §2, §3, §4, §5

SUDHL5 cells [3] = test: Induction of cytotoxicity in SUDHL5 cells (Assay 6); settings: 5 h, CellTiter-Glo, read-out: Cytotox SUDHL5 IC50 (median)
Method: Assay 6 Induction of Cytotoxicity Upon Treatment of Cells with Selected Compounds
In principle, compounds that induce apoptosis will concomitantly induce cell cytotoxicity. Therefore, cytotoxicity assays were run in parallel in SUDHL5 and SUDHL10 cells.
As a control, medium without cells was also added to the plate. Cells were incubated in a humidified incubator at 37° C. overnight. […] Rim wells were excluded. The cells were incubated for 5 h hours in a humidified incubator at 37° C. After this incubation, 30 μL of CellTiter-Glo® Luminescent Cell Viability reagent (Promega, G7573) was added to each well using the Multidrop Combi Reagent Dispenser, followed by 15 min incubation on a shaker at room temperature. Finally, luminescence was read at 0.1 ms, with a gain of 3000 using the PHERAstar FS microplate reader (BMG Labtech).

[4] = 72 h, CellTiter-Glo; read-out: Antiproli AMO-1 IC50 median
[5] = caspase-3/7 induction, 3 h; read-out: Caspase SUDHL5 EC50 (median)
[6] = caspase-3/7 induction, 3 h; read-out: Caspase SUDHL10 EC50 (median)
[7] = 72 h, CellTiter-Glo; read-out: Antiproli HMC-1-8 IC50 median
[8] = 72 h, CellTiter-Glo, read-out: Antiproli HMC-1-8 IC50 median

Row | EC50 (SUDHL5 cells [1]; [5]) [nM] | IC50 (SUDHL5 cells [2]) [nM] | EC50 (SUDHL10 cells; [6]) [nM] | SMILES | IC50 (AMO-1 cells; [4]) [nM] | IC50 (HMC-1-8 cells; [7]) [nM] | IC50 (SUDHL5 cells [3]) [nM] | IC50 (HMC-1-8 cells; [8]) [nM] | IC50 (AMO-1 cells; Homo sapiens, AMO1, 72 h, 72 h, CellTiter-Glo; read-out: Antiproli AMO-1 IC50 median) [nM] | EC50 (SUDHL5 cells [1]; Homo sapiens, SU-DHL-5, 3 h, caspase-3/7 induction, 3 h; read-out: Caspase SUDHL5 EC50 (median)) [nM] | IC50 (SUDHL5 cells [2]; Homo sapiens, SU-DHL-5, 72 h) [nM] | EC50 (SUDHL10 cells; Homo sapiens, SU-DHL10, 3 h, caspase-3/7 induction, 3 h; read-out: Caspase SUDHL10 EC50 (median)) [nM] | IC50 (SUDHL5 cells [3]; Homo sapiens, SU-DHL-5, 5 h) [nM] | IC50 (AMO-1 cells; read-out: Antiproli AMO-1 IC50 median; 72 h, CellTiter-Glo) [nM] | EC50 (SUDHL5 cells [1]; read-out: Caspase SUDHL5 EC50 (median); caspase-3/7 induction, 3 h) [nM] | EC50 (SUDHL10 cells; read-out: Caspase SUDHL10 EC50 (median); caspase-3/7 induction, 3 h) [nM] | IC50 (HMC-1-8 cells; read-out: Antiproli HMC-1-8 IC50 median; 72 h, CellTiter-Glo) [nM]
1 | 58 | 68 | 84 | CCc1c2c(nn1C)C(CCN1CCOCC1)OCC(F)(F)CCn1c(C(=O)O)c(CCCOc3cccc4cc(F)ccc34)c3ccc(Cl)c-2c31 (single isomer, unassigned; (+)) [Example 87, (+)-4-chloro-3-ethyl-12,12-difluoro-7-{3-[(6-fluoronaphthalen-1-yl)oxy]propyl}-2-methyl-15-[2-(morpholin-4-yl)ethyl]-2,10,11,12,13,15-hexahydropyrazolo[4′,3′:9,10][1,6]oxazacycloundecino[8,7,6-hi]indole-8-carboxylic Acid] | 63.9 | 1500 | 61 | – | – | – | – | – | – | – | – | – | –
2 | 660 | 1000 | 890 | CCc1c2c(nn1C)C(CCN1CCOCC1)OCC(F)(F)CCn1c(C(=O)O)c(CCCOc3cccc4cc(F)ccc34)c3ccc(Cl)c-2c31 (single isomer, unassigned; (-)) [Example 91, (−)-4-chloro-3-ethyl-12,12-difluoro-7-{3-[(6-fluoronaphthalen-1-yl)oxy]propyl}-2-methyl-15-[2-(morpholin-4-yl)ethyl]-2,10,11,12,13,15-hexahydropyrazolo[4′,3′:9,10][1,6]oxazacycloundecino[8,7,6-hi]indole-8-carboxylic Acid] | 729 | 6100 | 790 | – | – | – | – | – | – | – | – | – | –
3 | 1500 | 2300 | 3500 | CCc1c2c(nn1C)C(CCN1CCOCC1)N(C)CCCCn1c(C(=O)O)c(CCCOc3cccc4cc(F)ccc34)c3ccc(Cl)c-2c31 (single isomer, unassigned) [Example 95, 4-chloro-3-ethyl-7-{3-[(6-fluoronaphthalen-1-yl)oxy]propyl}-2,14-dimethyl-15-[2-(morpholin-4-yl)ethyl]-10,11,12,13,14,15-hexahydro-2H-pyrazolo[3′,4′:8,9][1,6]diazacycloundecino[10,11,1-hi]indole-8-carboxylic Acid] | 4300 | 8220 | 2200 | – | – | – | – | – | – | – | – | – | –
4 | 76 | 71 | 59 | CCc1c2c(nn1C)C(CCN1CCOCC1)N(C)CCCCn1c(C(=O)O)c(CCCOc3cccc4ccccc34)c3ccc(Cl)c-2c31 (racemic) [Example 99, (rac)-4-chloro-3-ethyl-2,14-dimethyl-(15-rac)-[2-(morpholin-4-yl)ethyl]-7-{3-[(naphthalen-1-yl)oxy]propyl}-10,11,12,13,14,15-hexahydro-2H-pyrazolo[3′,4′:8,9][1,6]diazacycloundecino[10,11,1-hi]indole-8-carboxylic] | 86.3 | – | 100 | 1860 | – | – | – | – | – | – | – | – | –
5 | – | – | – | CCc1c2c(nn1C)C(CCN1CCN(C)CC1)OCCCCn1c(C(=O)O)c(CCCOc3cccc4cc(F)ccc34)c3ccc(Cl)c-2c31 (single isomer, unassigned; stereoisomer 4) [Example 73, (−)-4-chloro-3-ethyl-7-{3-[(6-fluoronaphthalen-1-yl)oxy]propyl}-2-methyl-15-[2-(4-methylpiperazin-1-yl)ethyl]-2,10,11,12,13,15-hexahydropyrazolo[4′,3′:9,10][1,6]oxazacycloundecino[8,7,6-hi]indole-8-carboxylic Acid (Stereoisomer 4)] | – | – | – | > 33000 | 3840 | 5200 | 6100 | 8800 | 7700 | – | – | – | –
6 | 19 | 30 | 28 | CCc1c2c(nn1C)C(CCN1CCOCC1)N(C)CCCCn1c(C(=O)O)c(CCCOc3cccc4cc(F)ccc34)c3ccc(Cl)c-2c31 (racemic) [Example 96, (rac)-4-chloro-3-ethyl-7-{3-[(6-fluoro-1-naphthyl)oxy]propyl}-2,14-dimethyl-15-(rac)-[2-(morpholin-4-yl)ethyl]-10,11,12,13,14,15-hexahydro-2H-pyrazolo[3′,4′:8,9][1,6]diazacycloundecino[10,11,1-hi]indole-8-carboxylic Acid] | – | 726 | 25 | – | – | – | – | – | – | – | – | – | –
7 | 100 | 200 | 140 | CCc1c2c(nn1C)C(CCN1CCOCC1)OCC(F)(F)CCn1c(C(=O)O)c(CCCOc3cccc4cc(F)ccc34)c3ccc(Cl)c-2c31 (centres unmarked) [Example 86, 4-chloro-3-ethyl-12,12-difluoro-7-{3-[(6-fluoronaphthalen-1-yl)oxy]propyl}-2-methyl-15-[2-(morpholin-4-yl)ethyl]-2,10,11,12,13,15-hexahydropyrazolo[4′,3′:9,10][1,6]oxazacycloundecino[8,7,6-hi]indole-8-carboxylic Acid] | 193 | 1590 | 150 | – | – | – | – | – | – | – | – | – | –
8 | 30 | 36 | 30 | CCc1c2c(nn1C)C(CCN1CCOCC1)OCC(F)(F)CCn1c(C(=O)O)c(CCCOc3cccc4cc(F)ccc34)c3ccc(Cl)c-2c31 (centres unmarked) [Example 89, 4-chloro-3-ethyl-12,12-difluoro-7-{3-[(6-fluoronaphthalen-1-yl)oxy]propyl}-2-methyl-15-[2-(morpholin-4-yl)ethyl]-2,10,11,12,13,15-hexahydropyrazolo[4′,3′:9,10][1,6]oxazacycloundecino[8,7,6-hi]indole-8-carboxylic Acid] | 29.5 | 765 | – | – | – | – | – | – | – | – | – | – | –
9 | 11 | 12 | 11 | CCc1c2c(nn1C)C(CCN1CCOCC1)N(C)CCCCn1c(C(=O)O)c(CCCOc3cccc4cc(F)ccc34)c3ccc(Cl)c-2c31 (centres unmarked) [Example 97, 4-chloro-3-ethyl-7-{3-[(6-fluoronaphthalen-1-yl)oxy]propyl}-2,14-dimethyl-15-[2-(morpholin-4-yl)ethyl]-10,11,12,13,14,15-hexahydro-2H-pyrazolo[3′,4′:8,9][1,6]diazacycloundecino[10,11,1-hi]indole-8-carboxylic Acid—N-ethylethanamine Salt] | 16.3 | 405 | – | – | – | – | – | – | – | – | – | – | –
10 | – | – | – | CCc1c2c(nn1C)C(CCN1CCN(C)CC1)OCCCCn1c(C(=O)O)c(CCCOc3cccc4cc(F)ccc34)c3ccc(Cl)c-2c31 (single isomer, unassigned; stereoisomer 3) [Example 72, (−)-4-chloro-3-ethyl-7-{3-[(6-fluoronaphthalen-1-yl)oxy]propyl}-2-methyl-15-[2-(4-methylpiperazin-1-yl)ethyl]-2,10,11,12,13,15-hexahydropyrazolo[4′,3′:9,10][1,6]oxazacycloundecino[8,7,6-hi]indole-8-carboxylic Acid—N-ethylethanamine Salt (Stereoisomer 3)] | – | – | 96 | – | – | – | – | – | – | 107 | 74 | 54 | 2290
